Results on five molecules are retold here after patent US5376658A, “5,10-methylene-tetrahydrofolate as a modulator of a chemotherapeutic agent” (priority 1993, dated 1994).

Structures are written as SMILES.

In one series the test system is gastrointestinal cancers. The conditions noted are these: human, in vivo; cited from earlier work.
The next series relates to breast cancer. Briefly: Clinical effect in patients receiving 5-FU plus high-dose (6R,S)-leucovorin with L-serine or glycine. The class given is in vivo, human. The conditions noted are these: person; L-serine i.v. added to 5-FU/(6R,S)-leucovorin, subsequently glycine 10 grams i.v. The procedure: As noted previously (see pages 5-6) and mentioned in C. P. Spears, et al., Proc. Am. […] Clin. Oncol. 8:69 (1989), the inventors have used pharmacologic intervention to convert intracellular FH4 to CH2 FH4 in patients receiving high-dose reduced folate therapy combined with weekly i.v. bolus 5-FU, 450 mg/sq. m. The method used was administration of i.v. L-serine, 15.0 grams, over 1 hour after the end of overnight high-dose (6R,S)-leucovorin i.v. infusion.

The nature of series [1]: Dimedone trapping of labile 14CH2O group on dilution. The conditions noted are these: 46,664 DPM diluted to 1 ml in H2O, 37° C. The class given is physicochemical. The text has this:
This requirement for a large excess of formaldehyde to shift the equilibrium between FH4 and CH2 FH4 (Eq. 1) was found by the inventors to
be independent of temperature, pH or the formaldehyde content of charcoal isolation, the presence of air exposure, or the presence of reducing agents. In addition, [11-^14 C]CH2 FH4 prepared as described (Moran et al., Proc. Natl. Acad. Sci. USA 76:1456-60 (1979)), and DEAE-purified (as the concentrated material) of excess ^14 CH2 O, was confirmed to have a labile ^14 CH2 O group by dimedone trapping.

The next series concerns TS. Briefly: TS assay in liver tumors of rats bearing transplanted hepatic colonic carcinoma. The class given is in vivo, rat. The conditions noted are these: 30 mg/kg each; 24 h after last injection; control 18.96. The text has this: (§1) The present inventors have considerable experience with this model, and the antitumor effects of 5-FU shown are typical results, as are the TS and folate assays of control and 5-FU-only-treated rats. […] In fact, the "free TS" levels in the (6R,S)-FH4 -only-treated rats were the lowest of all arms of the study.
(§2) ^b Inoculation of 1 × 10^6 viable colon tumor
(§3) (nitrosoguanidineinduced) cells under the liver capsule on Day 1 (Carlsso
(§4) et al., Anticancer Res. 10:813-16 (1990)). Animals sacrificed on Day 17
(§5) for excision of single liver tumor nodules for pharmacodynamic studies.
(§6) ^d Assays done as described (Spears et al. Adv. Exp. Med. Biol.

The conditions of series [2]: cited from earlier work.
Series [3] deals with hepatic colonic carcinoma. Briefly: Tumor weight in rats bearing transplanted hepatic colonic carcinoma. The class given is in vivo, rat.
Source text: as §1
>94% by HPLC). The (6 R,S)FH 4 was weighed, dissolved in normal
saline, and injected daily by tail vein administration using the airfree
Protector device to prevent oxidative destruction of the folate.
as §2, §3, §4, §5

Series [4] relates to 5,10-CH2 FH4 and FH4 levels in liver tumor. As to the kind of experiment: Folate assay (5,10-CH2 FH4 and FH4) in liver tumors of rats. The class given is in vivo, rat. The conditions noted are these: 30 mg/kg each, 24 h after last injection.
Source text: as §1, §2, §3, §4, §5, §6

Series [5] concerns CH2 FH4 and FH4 in breast cancer biopsies. As to the kind of experiment: CH2 FH4 and FH4 levels in breast cancer biopsies during L-serine infusion after high-dose (6R,S)-leucovorin. The class given is in vivo, human. Set-up: CH2 FH4 / FH4: unit not given here. The procedure: As noted previously (see pages 5-6) and mentioned in C. P. Spears, et al., Proc. Am. Soc. Clin. Oncol. 8:69 (1989), the inventors have used pharmacologic intervention to convert intracellular FH4 to CH2 FH4 in patients receiving high-dose reduced folate therapy combined with weekly i.v. bolus 5-FU, 450 mg/sq. m. The method used was administration of i.v. L-serine, 15.0 grams, over 1 hour after the end of overnight high-dose (6R,S)-leucovorin i.v. infusion.
In contrast to the data shown in Tables II and III, the inventors were able to also assay for intratumoral FH4 in addition to CH2 FH4 (this latter is also referred to as "FBC" in those Tables or Folate-Binding Capacity), at time points during this pharmacologic forcing of metabolism of FH4 to CH2 FH4 through the enzyme, serine hydroxymethyltransferase. This enzyme splits a carbon of L-serine to generate formaldehyde in the presence of FH4.
^a Minutes after initiation of 15.0 gram LSerine i.v. 60min infusion,
after end of overnight (6R,S)leucovorin highdose i.v. infusion.
^b Assays performed as described (C.P. Spears et al., Adv. Exp. Med.

[6] abbreviates: separate confirmatory experiment, 6 rats/group.
Where [7] appears, read: patient four, 25 min after initiation of 15.0 g L-serine i.v.
The mark [8] stands for this setting: patient four, 82 min after initiation of 15.0 g L-serine i.v.
Setting [9] is: patient two, 22 min after initiation of 15.0 g L-serine i.v.
[10] abbreviates: patient two, 65 min after initiation of 15.0 g L-serine i.v.

Take `Nc1nc2ncc(CNc3ccc(C(=O)N[C@@H](CCC(=O)O)C(=O)O)cc3)nc2c(=O)[nH]1` [folic acid]: the “effect of addition to 5-FU therapy” value with gastrointestinal cancers was “increase in toxicity without improved response rates”.

As for `NCC(=O)O` [glycine], the “Clinical effect, third patient” value with breast cancer is “rapid response to 5-FU therapy”.

On to `Nc1nc2c(c(=O)[nH]1)N1[14CH2]N(c3ccc(C(=O)N[C@@H](CCC(=O)O)C(=O)O)cc3)CC1CN2` (stereo partly shown) [[11-^14 C]-CH2 FH4], for which, in series [1], the “label recoverable by chloroform extraction of dimedone (methone) product” value is 67.8%.

In the series with TS, `Cl.Cl.Nc1nc2c(c(=O)[nH]1)NC(CNc1ccc(C(=O)N[C@@H](CCC(=O)O)C(=O)O)cc1)CN2.O` (mixture of isomers) [(6R,S)-FH4, 5,6,7,8Tetrahydropteroyl-L-glutamic acid dihydrochloride monohydrate] showed a TS of 7.13 p mole/g. Also, the stability of powder entry in series [2] (anaerobic conditions, room temperature) was “stable even at room temperature, for a year or more”. Moreover, the “stability under anaerobic conditions” value in series [2] (anaerobic conditions) is “completely stable”. Besides, the degradation of solution in series [2] (in […], exposed to air) was 90%. This molecule also showed a Tumor weight in series [3] (Day 17 after transplantation, 30 mg/kg each, average of 3 rats, control 5.84) of 10.43 g. Moreover, in series [3] (setting [6]), the “tumor growth, % of control tumor weight” value is reported as 171% and the “tumor size (weight)” value is 6.0 ± 1.1 g. Moreover, the “5,10-CH2 FH4” value in series [4] (control 0.69) came to 2.93 nmol/g. Further, the FH4 in series [4] (control 1.18) amounted to 2.31 nmol/g.

Consider `N[C@@H](CO)C(=O)O` [L-serine], for which the “Clinical effect, third patient” value in the series with breast cancer is “rapid acceleration of objective tumor growth and tumor symptoms”. In addition, the “Ratio of FH4/CH2 FH4” value in series [5] (patient four, 25 min) is listed as 2.9; in series [5] (patient four, 82 min), 3.0; in series [5] (patient two, 22 min), 3.4; in series [5] (patient two, 65 min), 2.7. The “CH2 FH4” value in series [5] (setting [7]) turned out to be 0.396; in series [5] (setting [8]), 0.475; in series [5] (setting [9]), 0.253; in series [5] (setting [10]), 0.340. Besides, the FH4 in series [5] (setting [7]) is recorded as 1.128; in series [5] (setting [8]), 1.420; in series [5] (setting [9]) it was 0.854; in series [5] (setting [10]) it was 0.907.
